According to patent US10189785B2, “Heterocyclic compound” (TAKEDA PHARMACEUTICAL COMPANY LIMITED, priority 2015, dated 2019):

Assays:
[1] = biological target: T1, SPT (SPT2-expressing membrane fraction: human SPT1, human SPT2 and human ssSPTa) (Homo sapiens, UniProt O15269+O15270); assay: SPT enzyme inhibition test (Test Example 1); format: biochemical; settings: read-out: Rate of inhibition (%) at 1 μM
T1 construct: Full-length human SPT1, human SPT2 and human ssSPTa used; made in house; host or cells: FreeStyle 293 cells (pcDNA3.1 vectors, cotransfection); crude membrane fraction used
T1 sequence (O15269 1-473): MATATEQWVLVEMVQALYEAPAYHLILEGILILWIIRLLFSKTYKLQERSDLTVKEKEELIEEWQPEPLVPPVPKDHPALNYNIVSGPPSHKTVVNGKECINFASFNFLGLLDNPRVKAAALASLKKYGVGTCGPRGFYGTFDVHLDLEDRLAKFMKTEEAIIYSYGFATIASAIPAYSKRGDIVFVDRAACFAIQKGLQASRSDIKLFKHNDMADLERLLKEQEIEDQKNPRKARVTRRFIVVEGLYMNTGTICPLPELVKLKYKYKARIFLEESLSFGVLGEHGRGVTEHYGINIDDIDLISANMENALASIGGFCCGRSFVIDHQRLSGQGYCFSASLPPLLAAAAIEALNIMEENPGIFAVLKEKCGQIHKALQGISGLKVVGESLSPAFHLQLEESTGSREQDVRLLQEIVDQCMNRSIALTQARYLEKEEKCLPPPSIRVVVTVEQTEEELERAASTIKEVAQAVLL
T1 sequence (O15270 1-562): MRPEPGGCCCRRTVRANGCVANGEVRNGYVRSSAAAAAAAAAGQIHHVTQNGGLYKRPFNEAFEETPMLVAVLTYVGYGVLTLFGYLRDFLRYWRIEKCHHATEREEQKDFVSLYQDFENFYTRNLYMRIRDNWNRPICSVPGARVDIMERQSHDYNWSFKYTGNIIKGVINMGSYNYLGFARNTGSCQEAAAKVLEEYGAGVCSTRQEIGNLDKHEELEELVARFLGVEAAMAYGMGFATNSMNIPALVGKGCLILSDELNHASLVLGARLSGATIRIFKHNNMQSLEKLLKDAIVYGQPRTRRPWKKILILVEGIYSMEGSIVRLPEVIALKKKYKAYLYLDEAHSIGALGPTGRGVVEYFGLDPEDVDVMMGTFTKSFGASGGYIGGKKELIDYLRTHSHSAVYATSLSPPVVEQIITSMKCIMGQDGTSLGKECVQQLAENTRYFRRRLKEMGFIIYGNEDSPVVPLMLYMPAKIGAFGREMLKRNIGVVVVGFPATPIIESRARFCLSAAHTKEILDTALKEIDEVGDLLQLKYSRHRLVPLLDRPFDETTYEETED
T1 sequence (Q969W0 1-71 partner): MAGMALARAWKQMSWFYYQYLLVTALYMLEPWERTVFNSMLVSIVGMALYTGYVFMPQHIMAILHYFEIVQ
Procedure: After culture for 3 days, the cells were recovered and frozen at −80° C. to obtain expressing cells. The frozen cells were suspended in a 50 mM Hepes buffer (pH 7.5) containing 250 mM sucrose, 5 mM ethylenediaminetetraacetic acid (EDTA), 5 mM dithiothreitol (DTT) and Complete, EDTA-free (Roche Applied Science, Penzberg, Upper Bavaria, Germany). The cells were disrupted (on ice, 20,000 rpm, 20 sec×2) using POLYTORON (Central Scientific Commerce, Inc.). After centrifugation at 2000 rpm (850×g) for 10 minutes, the supernatant was recovered. Subsequently, the supernatant was centrifuged at 40,000 rpm (186,010×g) for 60 minutes, and the supernatant was discarded. The pellets were suspended in a 50 mM Hepes buffer (pH 7.5) containing 5 mM EDTA, 5 mM DTT and Complete, EDTA-free, passed through a 40-μm cell strainer and stored at −80° C. The resultant was used as a SPT2-expressing membrane fraction. The protein concentration was determined using CBB Protein Assay with bovine serum albumin used as standards.
5 μL of each test compound was mixed with 10 μL of the 100 μg/mL SPT2-expressing membrane fraction using an assay buffer (100 mM Hepes (pH 8.0) containing 2.5 mM EDTA, 5 mM DTT and 0.01% fatty acid-free bovine serum albumin), and the mixture was left standing at room temperature for 60 minutes. Subsequently, 5 μL of a substrate solution containing 2 mM L-serine and 20 μM palmitoyl CoA was added thereto, and an enzyme reaction was carried out in a 384-well plate using 20 μL in total of the reaction system. After reaction at room temperature for 15 minutes, the reaction was terminated by the addition of 20 μL of a 2% aqueous formic acid solution. Subsequently, 40 μL of acetonitrile containing 600 nM C17-sphinganine (Avanti Polar Lipids, Inc., Alabaster, Ala., U.S.) was added thereto as an internal standard. The reaction sample was subjected to on-line solid-layer extraction using RapidFire 300 (Agilent Technologies Inc., Santa Clara, Calif., U.S.). […] Mass chromatograms were obtained using Analyst software (version 1.5.0, AB SCIEX). Their mass chromatogram areas were respectively calculated, and the rate of inhibition (%) by the test compound was calculated using an area ratio (the value of the reaction product was divided by the value of the internal standard).

[2] = test system: lung adenocarcinoma cell line HCC4006; assay: HCC4006 cell growth inhibition test (Test Example 2); format: cell-based; settings: Homo sapiens, 120 h; 1 μM test compound; HCC4006 cells, culture for 5 days, CellTiter-Glo; read-out: Rate of inhibition (%) at 1 μM
Procedure: A lung adenocarcinoma cell line HCC4006 (ATCC) was cultured using an RPMI-1640 medium (Wako Pure Chemical Industries, Ltd.) containing 10% fetal bovine serum and penicillin/streptomycin. 250 cells per well were inoculated into 40 μL of a medium in a 384-well culture plate. On the next day, 10 μL of each test compound was added to the cells. After culture for 5 days, the medium was discarded, and 30 μL of CellTiter-Glo Luminescent Cell Viability Assay solution (Promega Corp., Fitchburg, Wis., U.S.) was added to each well. Light emission signals were measured using EnVision (PerkinElmer, Inc., Waltham, Mass., U.S.).
The rate of inhibition (%) by the test compound was calculated according to the following expression: Rate of inhibition (%)=(1−(Count of the test compound−Blank)/(Control−Blank))×100
In the above expression, a count under compound non-addition conditions was indicated as a control, and a count under cell-free conditions was indicated as a blank.

SMILES | inhibition at 1 µM [1] [%] | inhibition at 1 µM [2] [%]
COc1cc(C(=O)N2CC[C@@H](NC(=O)c3cc(C)nn3C)[C@@H](c3ccccc3)C2)cnc1OC [Example 151B, N-((3S,4R)-1-((5,6-dimethoxypyridin-3-yl)carbonyl)-3-phenylpiperidin-4-yl)-1,3-dimethyl-1H-pyrazole-5-carboxamide] | 99 | 51
Cc1nn(C)c(Cl)c1C(=O)N[C@@H]1CCN(C(=O)c2cc(Cl)c3ncc(C)n3c2)C[C@@H]1c1ccccc1 [Example 342B, 5-chloro-N-((3S,4R)-1-((8-chloro-3-methylimidazo[1,2-a]pyridin-6-yl)carbonyl)-3-phenylpiperidin-4-yl)-1,3-dimethyl-1H-pyrazole-4-carboxamide] | 101 | 51
COc1cc(C(=O)N2CC[C@@H](NC(=O)c3cc(C4CC4)nn3C)[C@@H](c3ccccc3)C2)cc2nccnc12 [Example 330B, 3-cyclopropyl-N-((3S,4R)-1-((8-methoxyquinoxalin-6-yl)carbonyl)-3-phenylpiperidin-4-yl)-1-methyl-1H-pyrazole-5-carboxamide] | 102 | 49
Cc1nn(C)c(Cl)c1C(=O)N[C@@H]1CCN(C(=O)c2cc(C)c3ncc(C)n3c2)C[C@@H]1c1ccccc1 [Example 344B, 5-chloro-N-((3S,4R)-1-((3,8-dimethylimidazo[1,2-a]pyridin-6-yl)carbonyl)-3-phenylpiperidin-4-yl)-1,3-dimethyl-1H-pyrazole-4-carboxamide] | 103 | 51
Cn1ncc(C(=O)N[C@@H]2CCN(C(=O)c3ccc4nccnc4c3)C[C@@H]2c2ccccc2)c1Cl [Example 132B, 5-chloro-1-methyl-N-((3S,4R)-3-phenyl-1-(quinoxalin-6-ylcarbonyl)piperidin-4-yl)-1H-pyrazole-4-carboxamide] | 98 | 45
COc1cc(C(=O)N2CC[C@@H](NC(=O)c3cnccc3C(F)(F)F)[C@@H](c3ccccc3)C2)cnc1OC [Example 139B, N-((3S,4R)-1-((5,6-dimethoxypyridin-3-yl)carbonyl)-3-phenylpiperidin-4-yl)-4-(trifluoromethyl)nicotinamide] | 100 | 52
COc1ccc(C(=O)N2CC[C@@H](NC(=O)c3ncccc3C(F)(F)F)[C@@H](c3ccccc3)C2)nc1OC [Example 44B, N-((3S,4R)-1-((5,6-dimethoxypyridin-2-yl)carbonyl)-3-phenylpiperidin-4-yl)-3-(trifluoromethyl)pyridine-2-carboxamide] | 98 | 47
CN(C)CCOc1cc(C(F)(F)F)c(C(=O)N[C@@H]2CCN(C(=O)c3cc(Cl)c4nccnc4c3)C[C@@H]2c2ccccc2)cn1 [Example 38B, N-((3S,4R)-1-((8-chloroquinoxalin-6-yl)carbonyl)-3-phenylpiperidin-4-yl)-6-(2-(dimethylamino)ethoxy)-4-(trifluoromethyl)nicotinamide] | 101 | 46
COc1ccc(C(=O)N2CCC(NC(=O)c3ccccc3Cl)c3ccc(Cl)cc32)cc1OC (centres unmarked) [Example 201A, 2-Chloro-N-(7-chloro-1-(3,4-dimethoxybenzoyl)-1,2,3,4-tetrahydroquinolin-4-yl)benzamide] |  | 40
COc1ccc(C(=O)N2CCC(NC(=O)c3ccccc3Cl)c3c2cnn3C)cc1OC (centres unmarked) [Example 2A, 2-Chloro-N-(4-(3,4-dimethoxybenzoyl)-1-methyl-4,5,6,7-tetrahydro-1H-pyrazolo[4,3-b]pyridin-7-yl)benzamide] |  | 36
COc1ccc(C(=O)N2CCC(NC(=O)c3ccccc3Cl)c3c2cnn3C(C)C)cc1OC (centres unmarked) [Example 36A, 2-Chloro-N-(4-(3,4-dimethoxybenzoyl)-1-isopropyl-4,5,6,7-tetrahydro-1H-pyrazolo[4,3-b]pyridin-7-yl)benzamide] |  | 47

More lines, main results first:

inhibition at 1 µM [1] [%] | SMILES | inhibition at 1 µM [2] [%]
101 | COc1cc(C(=O)N2CCC(NC(=O)c3ccccc3OC(F)(F)F)c3c2cnn3C)cnc1OC (centres unmarked) [Example 133A, N-(4-((5,6-Dimethoxypyridin-3-yl)carbonyl)-1-methyl-4,5,6,7-tetrahydro-1H-pyrazolo[4,3-b]pyridin-7-yl)-2-(trifluoromethoxy)benzamide] | 50
101 | CCn1ncc2c1[C@@H](NC(=O)c1ccc(Cl)cc1C(F)(F)F)CCN2C(=O)c1cnc(OC)c(OC)c1 [Example 165A, 4-Chloro-N-((7S)-4-((5,6-dimethoxypyridin-3-yl)carbonyl)-1-ethyl-4,5,6,7-tetrahydro-1H-pyrazolo[4,3-b]pyridin-7-yl)-2-(trifluoromethyl)benzamide] | 52
100 | COc1cc(C(=O)N2CC[C@@H](NC(=O)c3ccccc3OC(F)(F)F)[C@@H](c3ccccc3)C2)cnc1OC [Example 70B, N-((3S,4R)-1-((5,6-dimethoxypyridin-3-yl)carbonyl)-3-phenylpiperidin-4-yl)-2-(trifluoromethoxy)benzamide] | 56
101 | CCn1ncc2c1C(NC(=O)c1ccc(Cl)cc1C(F)(F)F)CCN2C(=O)c1cnc(OC)c(OC)c1 (centres unmarked) [Example 153A, 4-Chloro-N-(4-((5,6-dimethoxypyridin-3-yl)carbonyl)-1-ethyl-4,5,6,7-tetrahydro-1H-pyrazolo[4,3-b]pyridin-7-yl)-2-(trifluoromethyl)benzamide] | 53
97 | COc1ccc(C(=O)N2CCC(NC(=O)c3ncccc3C(F)(F)F)c3c2cnn3C)cc1OC (centres unmarked) [Example 100A, N-(4-(3,4-dimethoxybenzoyl)-1-methyl-4,5,6,7-tetrahydro-1H-pyrazolo[4,3-b]pyridin-7-yl)-3-(trifluoromethyl)pyridine-2-carboxamide] | 39
